Results from PubChem BioAssay (NCI).
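Where inhibition never reached the appropriate level, the endpoint shown equals the highest concentration tested. Otherwise, values were interpolated linearly from a five-concentration, 48-hour dose response in 96-well plates. The concentration for 50% growth inhibition is given as GI50. Definition used: TGI = concentration required for complete inhibition of growth.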

What was measured:
Experiment in all cases: NCI tumour cell line growth inhibition, 48 h
ACHN renal = system: ACHN renal
CAKI-1 renal = system: CAKI-1 renal
HCC-2998 colon = system: HCC-2998 colon
M14 melanoma = system: M14 melanoma
MCF7 breast = system: MCF7 breast
MDA-MB-231 breast = system: MDA-MB-231 breast
MDA-MB-435 = system: MDA-MB-435
SK-MEL-2 melanoma = system: SK-MEL-2 melanoma
SN12C renal = system: SN12C renal
UACC-62 melanoma = system: UACC-62 melanoma

Row | SMILES | TGI (ACHN renal) | TGI (CAKI-1 renal) | TGI (HCC-2998 colon) | TGI (M14 melanoma) | TGI (MCF7 breast) | TGI (MDA-MB-231 breast) | TGI (MDA-MB-435) | TGI (SK-MEL-2 melanoma) | TGI (SN12C renal) | TGI (UACC-62 melanoma) | GI50 (ACHN renal) | GI50 (CAKI-1 renal) | GI50 (MDA-MB-435) | GI50 (SK-MEL-2 melanoma) | GI50 (UACC-62 melanoma) | GI50 (M14 melanoma) | GI50 (MCF7 breast) | GI50 (SN12C renal) | GI50 (MDA-MB-231 breast)
1 | Cc1nnc2sc(-c3ccc(N)cc3)nn12 | > 100 µM | > 100 µM | > 100 µM | > 100 µM | > 100 µM | > 100 µM | > 100 µM | > 100 µM | > 100 µM | > 100 µM | – | – | – | – | – | – | – | – | –
2 | CCOC(=O)C1=C(C)N2CCCOC2(C)C(C(=O)OC)C1c1cccc([N+](=O)[O-])c1 (stereo not drawn) | > 100 µM | > 100 µM | > 100 µM | > 100 µM | – | – | – | > 100 µM | – | > 100 µM | – | – | – | – | – | – | – | – | –
3 | CC(=O)O[C@H]1CC[C@]2(C)[C@H]3C(=O)C=C4[C@@H]5C[C@](C)(C(=O)N6CCCNCC6)CC[C@]5(C)CC[C@@]4(C)[C@]3(C)CC[C@H]2C1(C)C | 3.02 µM | 2.79 µM | – | – | – | – | 2.97 µM | 3.7 µM | – | 3.13 µM | 1.66 µM | 1.43 µM | 1.59 µM | 1.93 µM | 1.69 µM | – | – | – | –
4 | O=[N+]([O-])/C=C/c1cccc(F)c1 | 6.84 µM | 29.9 µM | 31.6 µM | 10.7 µM | 3 µM | 38.2 µM | 13.2 µM | 29.9 µM | 38.9 µM | 22.5 µM | – | – | – | – | – | – | – | – | –
5 | COc1cc2c(cc1OC)C(C1(O)CCCCC1)NCC2 (stereo not drawn) | > 100 µM | – | > 100 µM | > 100 µM | – | – | – | > 100 µM | > 100 µM | > 100 µM | – | – | – | – | – | – | – | – | –
6 | C=C(/C=C/C=C(/CCC=C(C)C)COC(C)=O)[C@@H]1CC[C@]2([C@H](CCCO)/C(=C(/C)C=O)CC[C@]2(C)O)[C@@H]1O | 27.6 µM | 17.5 µM | 20.3 µM | 23.5 µM | – | – | – | 33 µM | 29.9 µM | – | – | – | – | – | – | – | – | – | –
7 | Cc1c(Cl)c(S(N)(=O)=O)cc(S(N)(=O)=O)c1NC(=O)c1ccc(Cl)cc1 | > 100 µM | > 100 µM | > 100 µM | > 100 µM | > 100 µM | – | > 100 µM | – | > 100 µM | > 100 µM | – | – | – | – | – | – | – | – | –
8 | NC(Cc1ccc2oc3cc(=O)c4ccccc4c-3nc2c1)C(=O)O (stereo not drawn) | > 100 µM | > 97.7 µM | 40.2 µM | 30.1 µM | 11.2 µM | > 100 µM | 12.2 µM | 74.3 µM | 39.5 µM | 22.5 µM | – | – | – | – | – | – | – | – | –
9 | Nc1nc(Cl)cc(NCCCCO)n1 | > 100 µM | – | > 100 µM | > 10 µM | – | – | – | > 100 µM | > 100 µM | > 100 µM | – | – | – | – | – | – | – | – | –
10 | NC(=O)c1nnc2cc(F)c(F)cc2c1N | > 100 µM | > 100 µM | > 100 µM | > 100 µM | > 100 µM | > 100 µM | > 100 µM | 38.5 µM | > 100 µM | > 100 µM | – | – | – | – | – | – | – | – | –
11 | N=C(N)SC1c2ccccc2-c2cc([N+](=O)[O-])ccc21 (stereo not drawn) | 18.9 µM | 19.3 µM | 9.84 µM | 17.7 µM | 12.4 µM | 23.6 µM | 4.26 µM | 13.9 µM | 26.6 µM | 10.1 µM | – | – | – | – | – | – | – | – | –
12 | C#CCCCCC#CC1CCCC1C1=CC(=O)c2ccccc21 (stereo not drawn) | 19.9 µM | – | 25.2 µM | 17 µM | – | – | – | 24.8 µM | 19.4 µM | 6.44 µM | – | – | – | – | – | – | – | – | –
13 | CN[C@@H]1[C@H](O)[C@H](NC)[C@H]2O[C@@]3(O)C(=O)C[C@@H](C)O[C@H]3O[C@@H]2[C@H]1O | > 100 µM | > 100 µM | > 100 µM | > 100 µM | > 100 µM | > 100 µM | > 100 µM | – | > 100 µM | > 100 µM | – | – | – | – | – | – | – | – | –
14 | CCCNCC(O)/C=C/[Si](C)(C)C (stereo not drawn) (tested in a mixture with another compound) | > 100 µM | – | > 100 µM | > 100 µM | – | – | – | > 100 µM | > 100 µM | > 100 µM | – | – | – | – | – | – | – | – | –
15 | Cc1c2ccccc2nc2[nH]c3ccncc3c12 | 77.2 µM | 96.7 µM | – | 85.7 µM | – | > 100 µM | > 100 µM | > 100 µM | 85.1 µM | 74.8 µM | – | – | – | – | – | – | – | – | –
16 | C[n+]1ccccc1/C=C/c1ccc2c(c1)OCO2 | > 10 µM | > 10 µM | > 10 µM | > 10 µM | > 10 µM | > 10 µM | > 10 µM | > 10 µM | > 10 µM | > 10 µM | – | – | – | – | – | – | – | – | –
17 | CC1(C)[C@@H]2C[C@H]1C(Cc1ccccc1C[C@H]1c3cc(-c4ccccn4)ncc3[C@H]3C[C@@H]1C3(C)C)c1cc(-c3ccccn3)ncc12 (stereo partly drawn) | 4.83 µM | > 40.8 µM | 39.8 µM | – | > 100 µM | > 68 µM | > 42.2 µM | > 90.3 µM | > 100 µM | 4.15 µM | – | – | – | – | – | – | – | – | –
18 | CCCCCCc1ccc(O)cc1O | – | – | > 100 µM | – | > 100 µM | – | – | 64 µM | > 100 µM | > 79.1 µM | – | – | – | – | – | – | – | – | –
19 | Oc1ccc2ccccc2c1N=Nc1ccc(N=Nc2ccccc2)cc1 | > 100 µM | > 100 µM | – | > 100 µM | – | > 100 µM | > 100 µM | > 100 µM | > 100 µM | > 100 µM | – | – | – | – | – | – | – | – | –
20 | O=S(=O)(O)c1cc(O)c2c(O)c(N=Nc3ccc(/C=C/c4ccc(N=Nc5c(S(=O)(=O)O)cc6cc(S(=O)(=O)O)cc(O)c6c5O)cc4S(=O)(=O)O)c(S(=O)(=O)O)c3)c(S(=O)(=O)O)cc2c1 | > 100 µM | > 100 µM | > 100 µM | > 100 µM | – | – | – | > 100 µM | > 100 µM | > 100 µM | – | – | – | – | – | – | – | – | –
21 | CCOC(=O)C1=C(C)N(Cc2ccc(Cl)cc2Cl)C2(O)C(OC)CC(=O)C3C(=O)N(c4ccccc4)C(=O)C132 (stereo not drawn) | 15.2 µM | 19.5 µM | 5.29 µM | 13.5 µM | 8.46 µM | 7.16 µM | 11.8 µM | 7.01 µM | 9.9 µM | 11.9 µM | – | – | – | – | – | – | – | – | –
22 | Cc1ccc(NCCN(C)CC(C)O)c2c(=O)c3ccc(Cl)cc3sc12 (stereo not drawn) | – | – | – | 3.38 µM | > 100 µM | – | – | – | > 100 µM | 3.48 µM | – | – | – | – | 1.85 µM | 1.77 µM | 2.18 µM | 4.42 µM | –
23 | CN(C)CCNc1ccc2nnn3c4ccc(Cl)cc4c(=O)c1c23 | 12.3 µM | 11 µM | 23.4 µM | 16.7 µM | 96.2 µM | 25.7 µM | 18.8 µM | 16.8 µM | 21.8 µM | 18.6 µM | – | – | – | – | – | – | – | – | –
24 | COc1cc2c(cc1O)CCN[C@@]21CS[C@H]2c3c(OC(C)=O)c(C)c4c(c3C(COC1=O)N1C2C2c3c(cc(C)c(OC)c3O)CC([C@@H]1O)N2C)OCO4 (stereo partly drawn) | 0.0012 µM | 0.0622 µM | – | 0.00473 µM | – | 0.0357 µM | 0.00604 µM | – | 4.41e-06 µM | – | – | 0.00269 µM | 0.00219 µM | – | – | – | 0.000277 µM | – | 0.00325 µM
